Measurements published in patent US7642283B2, “Mitochrondrial permeability transition pore affinity labels and modulators” (Hoffmann-La Roche Inc., priority 2003, dated 2010).

Columns and labels:
MPTP [1] = assay: Ca2+-induced swelling (MPTP) in rat liver mitochondria energised with succinate; format: biochemical; conditions: as E1, in the presence of 1 μg/ml oligomycin
Procedure: Ca^2+-induced swelling (sucrose permeability) in energized mitochondria was assayed at 25° C. in 96 well-plates by measuring changes in absorbance at 540 nm by means of a […]ax 250 spectrophometer controlled by the SOFTmax PRO™ software (Molecular Devices, Switzerland). The incubation medium contained 0.2 M sucrose, 10 mM Tris-Mops, pH 7.4, 1 mM Pi-Tris, 5 μM EGTA. Succinate (5 mM, in the presence of 2 μM rotenone) or 5 mM glutamate/2.5 mM malate, buffered to pH 7.4 with Tris, were used as respiratory substrates. After a short (˜5 min) preincubation in presence or absence of test compounds, mitochondrial swelling was induced by the addition of 20 μl CaCl2 at final concentrations ranging from 40 to 80 μM, depending on respiratory substrates and Ca^2+ sensitivity of the mitochondrial preparation. The final incubation volume was 0.2 ml and the concentration of mitochondria was ˜0.5 mg mitochondrial protein ml^−1. Swelling kinetics was followed for up to 30 min at 25° C. Absorbance readings were taken every 12 sec and the plate was shaken for 3 s between readings to ensure oxygen diffusion during the experiment and to avoid sedimentation of the mitochondria.
The incubation medium contained 0.2 M sucrose, 10 mM Tris-Mops, pH 7.4, 1 mM Pi-Tris, 5 μM EGTA.

MPTP [2] = target: T1, MPTP (Rattus norvegicus, UniProt Q9Z2L0); assay: Ca2+-retention capacity of rat brain mitochondria (Calcium Green-5N); format: biochemical; conditions: Ca2+ pulses, rat brain mitochondria
T1 construct: other: n=2; glutamate/malate; other: glutamate/malate; 20 min; mean±SEM; unit not given; other: 300 nM; relieved by 50 μM Ub5
Procedure: FIG. 4: (A) Effect of Spiro[cyclopentane-1,5′-[5H]dibenzo[a,d]cyclohepten]-2-one,10′,11′-dihydro-3-methylene- and CsA on Ca^2+-retention capacity of rat brain mitochondria. The incubation medium contained 0.2 M sucrose, 10 mM Tris-Mops, pH 7.4, 1 mM Pi-Tris, 5 μM EGTA and 5 mM glutamate/2.5 mM malate, buffered to pH 7.4 with Tris, containing 0.01% (w/v) bovine serum albumin and 1 μM Calcium Green-5N. The final volume was 2.5 ml. Trace (a) control, (b) 1 μM CsA, (c) 1 μM Spiro[cyclopentane-1,5′-[5H]dibenzo[a,d]cyclohepten]-2-one,10′,11′-dihydro-3-methylene- and (d) 1 μM CsA plus 1 μM Spiro[cyclopentane-1,5′-[5H]dibenzo[a,d]cyclohepten]-2-one,10′,11′-dihydro-3-methylene-. Each fluorescence spike corresponds to addition of 5 μM Ca^2+. (B) Comparison of Ca^2+-retention capacity in liver (a) and brain mitochondria (b).
Effect of Spiro[cyclopentane-1,5′-[5H]dibenzo[a,d]cyclohepten]-2-one,10′,11′-dihydro-3-methylene- and CsA on Ca^2+-retention capacity of rat brain mitochondria (FIG. 4). Measurement of extramitochondrial Ca^2+ was determined using a Perkin-Elmer LS-50B fluorimeter controlled by the FL WinLab computer program. […] The final volume was 2.5 ml and the cuvette was thermostated at 25° C. Brain mitochondria were then subjected to a train of 5 μM Ca^2+ additions (˜150 nmol mg protein^−1). Extramitochondrial Ca^2+ was monitored at excitation/emission wavelengths of 505-535. […] The Ca^2+-retention capacity in liver (a) and brain mitochondria (b) were also compared (FIG. 4B).
The effect of Spiro[cyclopentane-1,5′-[5H]dibenzo[a,d]cyclohepten]-2-one,10′,11′-dihydro-3-methylene- at inhibiting MPTP was also investigated in mitochondria isolated from rat forebrain. […] Due to the difficulties mentioned above, the effect of Spiro[cyclopentane-1,5′-[5H]dibenzo[a,d]cyclohepten]-2-one,10′,11′-dihydro-3-methylene- on MPTP in brain mitochondria was more accurately investigated by subjecting mitochondria isolated from rat forebrain to a series of Ca^2+ pulses (5 μM, ˜150 nmol mg protein^−1) and by monitoring extramitochondrial Ca^2+ or using fluororescent probes.

VDAC1 = target: T2, VDAC1 (Rattus norvegicus, UniProt Q9Z2L0); assay: Affinity labeling of rat mitochondria with the tritiated spiro compound, SDS-PAGE and fluorography; format: binding
T2 construct: from tissue; host or cells: Percoll-purified rat brain and liver mitochondria
Procedure: FIG. 6: Affinity-labeling of isolated rat brain (A) and liver (B) mitochondria. Mitochondrial preparations were incubated in the presence of 10 nM Spiro[cyclopentane-1,5′-[5H]dibenzo[a,d]cyclohepten]-2-one,10′,11′-t2-10′,11′-dihydro-3-methylene- for 15 min at 25° C. in presence or absence of various concentrations of Spiro[cyclopentane-1,5′-[5H]dibenzo[a,d]cyclohepten]-2-one,10′,11′-dihydro-3-methylene-(unlabeled). Samples were submitted to SDS-PAGE (see Experimental Procedures section for details) and fluorography. The fluorograms of the gels are shown. The molecular mass scale (kDa) is shown in the ordinate.
(§1) FIG. 8: (A) Effect of monobromobimano (MBBM) and phenylarsino oxide (PhAO) on VDAC1 labeling by Spiro[cyclopentane-1,5′-[5H]dibenzo[a,d]cyclohepten]-2-one,10′,11′-t2-10′,11′-dihydro-3-methylene- in rat brain mitochondria. Experimental conditions were as in the legend to FIG. 5. (B) Effect of various MPTP inhibitors, atractyloside (ATR) and DIDS on VDAC1 labeling by Spiro[cyclopentane-1,5′-[5H]dibenzo[a,d]cyclohepten]-2-one,10′,11′-t2-10′,11′-dihydro-3-methylene- in rat brain mitochondria. Mitochondria were exposed to DIDS for 5 min before rinsing for removal of the free agent and labeling with Spiro[cyclopentane-1,5′-[5H]dibenzo[a,d]cyclohepten]-2-one,10′,11′-t2-10′,11′-dihydro-3-methylene.
Percoll purified mitochondria (˜30 μg protein per sample) were incubated in the presence of 10 nM Spiro[cyclopentane-1,5′-[5H]dibenzo[a,d]cyclohepten]-2-one,10′,11′-t2-10′,11′-dihydro-3-methylene- in a final volume of 200 μl. After incubation for 15 min at 25° C., samples were centrifuged at 25000×g and the mitochondrial pellet rinsed twice with buffer. Samples were then solubilized in sample buffer containing β-mercaptoethanol (1 h at 37° C.) and subjected to SDS-polyacrylamide gel-electrophoresis (SDS-PAGE) on Tris-glycine Novex pre-cast mini-gels (12% monomer concentration, Invitrogen BV, The Netherlands). After Coomassie Blue staining, gels were processed for fluorography by soaking in Amplify™ (Amersham Biosciences), drying and exposing to X-ray BioMax MS film with BioMax MS intensifying screen (Kodak) at −80° C. for the appropriate time.
as §1, with “Effect” for “FIG. 8: (A) Effect”, “monobromobimano” for “monobromobimano (MBBM)”, “oxide” for “oxide (PhAO)”, “Example 12 (FIG. 8A).” for “the legend to FIG. 5. (B)”, “Spiro[cyclopentane-1,5′-[5H]dibenzo[a,d]cyclohepten]-2-one,10′,11′-t2-10′,11′-dihydro-3-methylene (FIG. 8B).” for “Spiro[cyclopentane-1,5′-[5H]dibenzo[a,d]cyclohepten]-2-one,10′,11′-t2-10′,11′-dihydro-3-methylene.”

YVDAC1 [3] = target: T3, YVDAC1 (Saccharomyces cerevisiae, UniProt P04840); assay: Affinity labeling of yeast mitochondria (Δpor1 and Δpor1 expressing YVDAC1); format: binding; conditions: Δpor1 strains with plasmid expressing YVDAC1
T3 construct: expressed in transfected cells; host or cells: Δpor1 yeast strain carrying a YVDAC1 plasmid; isolated mitochondria
T3 sequence (P04840 2-283): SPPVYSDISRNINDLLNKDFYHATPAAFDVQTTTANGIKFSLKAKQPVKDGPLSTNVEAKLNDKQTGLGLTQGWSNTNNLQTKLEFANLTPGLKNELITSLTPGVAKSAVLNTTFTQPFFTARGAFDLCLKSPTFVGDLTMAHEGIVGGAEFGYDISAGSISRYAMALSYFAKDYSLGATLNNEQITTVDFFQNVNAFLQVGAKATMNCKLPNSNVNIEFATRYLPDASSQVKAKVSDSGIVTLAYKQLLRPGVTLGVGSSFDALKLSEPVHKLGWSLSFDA
Source text: (§2) FIG. 9: Spiro[cyclopentane-1,5′-[5H]dibenzo[a,d]cyclohepten]-2-one,10′,11′-t2-10′,11′-dihydro-3-methylene affinity labeling of yeast mitochondria lacking the por1 gene for YVDAC1 (Δpor1) and into Δpor1 yeast mitochondria transfected with YVDAC1 in presence or absence of different concentrations of Spiro[cyclopentane-1,5′-[5H]dibenzo[a,d]cyclohepten]-2-one,10′,11′-dihydro-3-methylene (unlabeled). The fluorograms of gels after SDS-PAGE are shown. Mitochondria isolated from yeast strains were incubated in the presence of 10 nM Spiro[cyclopentane-1,5′-[5H]dibenzo[a,d]cyclohepten]-2-one,10′,11′-t2-10′,11′-dihydro-3-methylene for 15 min at 25° C. Numbers indicate the concentrations (μM) of the various compounds added.
(§3) To further confirm VDAC1 as the protein target of Spiro[cyclopentane-1,5′-[5H]dibenzo[a,d]cyclohepten]-2-one,10′,11′-dihydro-3-methylene-, the labeling of proteins in mitochondria prepared from yeasts by Spiro[cyclopentane-1,5′-[5H]dibenzo[a,d]cyclohepten]-2-one,10′,11′-t2-10′,11′-dihydro-3-methylene- was investigated. […] Increasing concentration of unlabelled Spiro[cyclopentane-1,5′-[5H]dibenzo[a,d]cyclohepten]-2-one,10′,11′-dihydro-3-methylene-inhibited incorporation of the radioactivity (FIG. 9).

YVDAC1 [4] = assay: as above; format: binding; conditions: Δpor1 strains
Source text: as §2, §3

human VDAC1 = target: T4, human VDAC1 (Homo sapiens, UniProt P21796); assay: Affinity labeling of Δpor1 yeast mitochondria expressing human VDAC1; format: binding; conditions: Δpor1 strains with plasmid expressing human VDAC1
T4 construct: expressed in transfected cells; host or cells: Δpor1 yeast strain transformed with a human VDAC1 plasmid; isolated mitochondria
Source text: as §3

T2 sequence (Q9Z2L0 whole entry): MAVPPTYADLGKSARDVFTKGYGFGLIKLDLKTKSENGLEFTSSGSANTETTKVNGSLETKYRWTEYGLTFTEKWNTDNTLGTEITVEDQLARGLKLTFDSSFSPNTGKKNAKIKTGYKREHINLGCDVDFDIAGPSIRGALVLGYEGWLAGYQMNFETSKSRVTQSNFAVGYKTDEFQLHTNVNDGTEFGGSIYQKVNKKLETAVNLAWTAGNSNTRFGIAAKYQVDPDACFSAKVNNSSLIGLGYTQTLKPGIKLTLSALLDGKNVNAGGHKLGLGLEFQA
T4 sequence (P21796 whole entry): as the sequence (Q9Z2L0 whole entry) above, with N55T, V129M, S160A, V227I counted along it
T1 sequence (Q9Z2L0 2-283): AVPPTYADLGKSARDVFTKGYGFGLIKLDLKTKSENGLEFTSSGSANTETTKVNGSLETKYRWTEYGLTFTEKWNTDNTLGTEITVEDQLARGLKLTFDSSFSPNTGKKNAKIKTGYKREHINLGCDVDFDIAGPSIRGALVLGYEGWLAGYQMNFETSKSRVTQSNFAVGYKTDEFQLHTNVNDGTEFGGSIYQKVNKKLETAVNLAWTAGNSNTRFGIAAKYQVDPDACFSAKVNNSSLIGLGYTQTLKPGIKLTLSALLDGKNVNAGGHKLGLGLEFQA

`Nc1ncnc2c1ncn2[C@@H]1O[C@H](COP(=O)(O)OP(=O)(O)O)[C@@H](O)[C@H]1O` [ADP] was tested. Which EC50 (MPTP [1]) did it give?
The EC50 was 4.8 µM.

And the “Additive effect when combined with the spiro compound (Example 2)” value (MPTP [2])?
The value was “additive”.

What about the “Effect on VDAC1 labeling (incorporation of radioactivity) by the tritiated spiro compound” value (VDAC1; rat brain mitochondria, 10 nM radiolabel) of the same molecule?
The value was “did not affect”.

`[3H]C1c2ccccc2C2(CCC(=C)C2=O)c2ccccc2C1[3H]` (stereo not shown) [Spiro[cyclopentane-1,5′-[5H]dibenzo[a,d]cyclohepten]-2-one,10′,11′-t2-10′,11′-dihydro-3-methylene-] was tested. Which “Labeling of ~32 kDa protein (VDAC1)” value (VDAC1; 10 nM, intact rat brain and liver mitochondria) did it give?
The value was “predominantly labeled”.

What about the “Labeling of 29 kDa band in yeast mitochondria” value (YVDAC1 [3]) of the same molecule?
Its value is “prominent labeling”.

And the “Labeling in yeast mitochondria lacking YVDAC1” value (YVDAC1 [4])?
The value was “virtually no labeling”.

And the “Labeling in yeast mitochondria expressing human VDAC1” value (human VDAC1)?
Its value is “no dear labeling”.
